Measured values: US4542027A, “Laidlomycin phenylcarbamate” (Syntex (U.S.A.) Inc., priority 1984, dated 1985)

Experiments:
rumen fluid [1] = test: Propionic acid production (VFA) in in vitro rumen fluid fermentation; assay type: cell-based, steer; design: Propionic acid production rate: unit not given here
Experimental: (§1) Two separate fermentation models were used to evaluate effects of laidlomycin and laidlomycin phenylcarbamate upon volatile fatty acids (VFA) and lactic acid production. Test compounds were solubilized in absolute ethanol at concentrations of 1 mg/ml and were serially diluted twofold in absolute ethanol through six additional concentrations. Aliquots of 200 μl were transferred to 18×150 mm test tubes, which were used as incubation vessels, and the ethanol was evaporated.
(§2) For both fermentation models rumen fluid from a rumen-fistulated steer, consuming a 100% alfalfa hay diet, was obtained before the morning feeding. The fluid was strained through four layers of cheesecloth, mixed with an equal volume of CO2 -saturated buffer, and 10 ml was transferred to each of the incubation vessels. All tubes were fitted with gas-release stoppers under an atmosphere of CO2 and were incubated in a shaking waterbath at 39° C. […] This medium, designed to be microbiologically nonselective, encouraged VFA production with no accumulation of lactic acid. Buffer used to study lactic acid accumulation (table 1) contained 150 mmol of glucose/liter and had little buffering capacity. This medium favored growth of lactic acid-producing bacteria and allowed rapid production of lactic acid coupled with a precipitous drop in pH from pH 6.2 to less than pH 5 during the course of an incubation.
(§3) Fermentation was terminated at 9 h for the VFA fermentations and at 5.5 h for the lactic acid fermentations by addition of 2 ml of 25% metaphosphoric acid to the incubation tubes. Aliquots were frozen overnight, thawed, centrifuged at 30,000 × g for 10 min and the resulting supernatants analyzed for either L(+)-lactic acid or VFA. The L(+)-lactic acid was analyzed via a specific enzymatic assay in which the concentration of lactic acid in the fermentation broth was quantified by the increase in absorbance of light at 340 nm when nicotinamide adenine dinucleotide was reduced by lactic acid with the aid of L(+)-lactic dehydrogenase. VFA were analyzed via gas chromatography using a Varian chromatograph equipped with a flame ionization detector. Acids were separated on a glass column (0.64×182.9 cm) packed with 10% SP-1200/1% H3 PO4 on Chromosorb-WAW®, 80-100 mesh. This column was obtained pre-packed from Supelco, Inc., Bellefont, Pennsylvania. Chromatographic conditions included a column temperature of 145° C., an injector temperature of 190° C., a detector temperature of 190° C., a carrier gas flow of 45 ml/min and an injection volume of 1 μl.
(§4) Net production rates of all acids were calculated by subtracting the concentration of acids in the incubation fluid before incubation from the concentration determined in each tube after incubation. Molar proportions of acetic, propionic, and butyric acids produced were calculated by dividing the production rate of individual acids by the sum of the production rates of the three acids. Data were analyzed by analysis of variance (SAS, 1979). Comparisons (Duncan's multiple range test) of individual means were made when treatment effects (P<0.05) were indicated.

[2] = Stability in soybean millrun feed premix at 60° C.; assay type: physicochemical
Experimental: These materials were then stored at 60° C. and analyzed for starting material at one week. The premix composition is given in Table 5 and the stability data in Table 6.

[3] = Stability at 60° C. in methanol-water, acetate buffer; assay type: physicochemical
Experimental: Laidlomycin phenylcarbamate, laidlomycin isopopylcarbamate and two laidlomycin esters were prepared and their relative stability at 60° C. methanol-water, acetate buffer was determined. A complete list of the esters and carbamates which were tested under these conditions follows: […]

rumen fluid [4] = test: L(+)-Lactic acid production in in vitro rumen fluid fermentation; assay type: cell-based, steer; design: Lactic acid production rate: unit not given here
Experimental: as §1, §2, §3, §4

[5] = tested on: Eimeria acervulina and Eimeria maxima; test: Anticoccidial activity in broiler chicks challenged with Eimeria acervulina and Eimeria maxima; assay type: in vivo; conditions: for Feed efficiency, feed/gain: 7 d; for Feed consumption / Gain / Final weight: cage of 12 chicks; for Final weight / Lesion scores, middle intestine / Lesion scores, upper intestine: 7 days after challenge; for Lesion scores, middle intestine / Lesion scores, upper intestine: scale 0 (least) to 4 (most severe)
Source text: Broiler chicks were reared, 12 per cage, in wire-floored battery cages under conditions which prevented extraneous coccidial infections. All chicks received a nonmedicated starter diet ad libitum until 8 days of age. From 8 days of age until the end of the study, chicks received the test diets which contained either O, 99, 121, 143 or 165 ppm of laidlomycin phenylcarbamate per kg of feed. Three replicate pens per treatment were used for all levels of experimental compounds tested.
At 10 days of age, birds were orally challenged with 200,000 oocycts of the coccidia, Eimeria acervulina, and 20,000 oocysts of Eimeria maxima per bird. The birds were weighed immediately preceding the coccidial challenge and again 7 days later. At 7 days following coccidial challenge, all birds were killed and lesions in the upper and middle sections of the intestinal tracts of six preselected birds per cage were scored on a scale of 0 to 4 based upon their number and severity. Feed present at the time of coccidial challenge and remaining 7 days later was used to determine the effects of compounds upon total feed consumption and feed efficiency.

[6] = in comparison with laidlomycin acylates
[7] = all non-zero concentrations, vs unmedicated

In the case of `CCC(=O)OC(C(C)C(=O)O)C(C)C1OC2(CCC(C)(C3CCC(C)(C4OC(C5OC(O)(COC(=O)Nc6ccccc6)C(C)CC5C)CC4C)O3)O2)CC(O)C1C` (stereo not drawn) [Laidlomycin phenylcarbamate, laidlomycin phenylcarbamate], the “Propionate production enhancement (in words)” value (rumen fluid [1]) is reported as “surprisingly and unexpectedly high”, the “Propionic acid production rate” value (rumen fluid [1]; 0.31 μg/ml, 9 h) is reported as 22.8 and the “Propionic acid production rate” value (rumen fluid [1]; 0.62 μg/ml, 9 h) is reported as 23.4. For the same compound, the “Propionic acid production rate” value (rumen fluid [1]; 1.25 μg/ml, 9 h) was 25.2, the “Propionic acid production rate” value (rumen fluid [1]; 2.50 μg/ml, 9 h) was 25.7 and the “Propionic acid production rate” value (rumen fluid [1]; 5.00 μg/ml, 9 h) was 26.9. The “Propionic acid production rate” value (rumen fluid [1]; 10.00 μg/ml, 9 h) was 27.0, the “Propionic acid production rate” value (rumen fluid [1]; 20.00 μg/ml, 9 h) was 28.2 and the “Propionic acid production, percentage of control” value (rumen fluid [1]; 20.00 μg/ml, 9 h, 540 min) was 133 % of control. It also gave an activity at 0.31 µg/mL (rumen fluid [1]; 9 h, 0.31 μg/ml, 9 h, read-out: Propionic acid production, percentage of control) of 107%, an activity at 1.25 µg/mL (rumen fluid [1]; 9 h, 1.25 μg/ml, 9 h, read-out: Propionic acid production, percentage of control) of 118% and an activity at 2.5 µg/mL (rumen fluid [1]; 9 h, 2.50 μg/ml, 9 h, read-out: Propionic acid production, percentage of control) of 121%. The activity at 5 µg/mL (rumen fluid [1]; 9 h, 5.00 μg/ml, 9 h, read-out: Propionic acid production, percentage of control) was 126%, the activity at 10 µg/mL (rumen fluid [1]; 9 h, 10.00 μg/ml, 9 h, read-out: Propionic acid production, percentage of control) was 127% and the activity at 20 µg/mL (rumen fluid [1]; 9 h, 20.00 μg/ml, 9 h, read-out: Propionic acid production, percentage of control) was greater than 130%. For the same compound, the activity at 0.62 µg/mL (rumen fluid [1]; 9 h, read-out: Propionic acid production, percentage of control, 0.62 μg/ml, 9 h) was 110%, the “Propionic acid production enhancement relative to laidlomycin” value (rumen fluid [1]; over all concentrations) was “more potent than laidlomycin (P<0.05)” and the “Stability in feed premixes (in words)” value [2, 6] was “highly stable”. For the same compound, the remaining at 168 h ([2]; soybean millrun feed premix, 60° C., one week, soybean millrun premix, 10% (w/w)) was 100%, the half-life ([3]; 60° C., methanol-water, acetate buffer, read-out: t1/2 (converted)) was 32.7 days and the “Stability in solution (in words)” value [3, 6] was “highly stable”. For the same compound, the “Lactic acid suppression (in words)” value (rumen fluid [4]) was “surprisingly and unexpectedly high”, the “Lactic acid production rate” value (rumen fluid [4]; 0.31 μg/ml, 5.5 h) was 28.4 and the activity at 0.31 µg/mL (rumen fluid [4]; 0.31 μg/ml, 5.5 h, read-out: Lactic acid production, percentage of control) was 102%. For the same compound, the “Lactic acid production rate” value (rumen fluid [4]; 0.62 μg/ml, 5.5 h) was 27.7, the activity at 0.62 µg/mL (rumen fluid [4]; 0.62 μg/ml, 5.5 h, read-out: Lactic acid production, percentage of control) was 99% and the “Lactic acid production rate” value (rumen fluid [4]; 1.25 μg/ml, 5.5 h) was 15.6. For the same compound, the activity at 1.25 µg/mL (rumen fluid [4]; 1.25 μg/ml, 5.5 h, read-out: Lactic acid production, percentage of control) was 56%, the “Lactic acid production rate” value (rumen fluid [4]; 2.50 μg/ml, 5.5 h) was 6.1 and the “Lactic acid production, percentage of control” value (rumen fluid [4]; 2.50 μg/ml, 5.5 h) was 21 % of control. For the same compound, the activity at 2.5 µg/mL (rumen fluid [4]; 2.50 μg/ml, 5.5 h, read-out: Lactic acid production, percentage of control) was 21%, the “Lactic acid production rate” value (rumen fluid [4]; 5.00 μg/ml, 5.5 h) was 3.8 and the activity at 5 µg/mL (rumen fluid [4]; 5.00 μg/ml, 5.5 h, read-out: Lactic acid production, percentage of control) was 13%. For the same compound, the “Lactic acid production rate” value (rumen fluid [4]; 10.00 μg/ml, 5.5 h) was 4.0, the activity at 10 µg/mL (rumen fluid [4]; 10.00 μg/ml, 5.5 h, read-out: Lactic acid production, percentage of control) was 14% and the “Lactic acid production rate” value (rumen fluid [4]; 20.00 μg/ml, 5.5 h) was 3.8. For the same compound, the activity at 20 µg/mL (rumen fluid [4]; 20.00 μg/ml, 5.5 h, read-out: Lactic acid production, percentage of control) was 13%, the “Inhibition of lactic acid production relative to laidlomycin” value (rumen fluid [4]; over all concentrations tested) was “superior to laidlomycin (P<0.05)” and the “Feed efficiency, feed/gain” value ([5]; 99 mg/kg of feed) was 2.21. The Feed consumption ([5]; 99 mg/kg of feed) was 3.40 kg/7 d, the Gain ([5]; 99 mg/kg of feed) was 1.54 kg/7 d and the Final weight ([5]; 99 mg/kg of feed) was 3.86 kg. The “Lesion scores, middle intestine” value ([5]; 99 mg/kg of feed) was 1.43, the “Lesion scores, upper intestine” value ([5]; 99 mg/kg of feed) was 1.20 and the “Feed efficiency, feed/gain” value ([5]; 121 mg/kg of feed) was 2.16. It also gave a Feed consumption ([5]; 121 mg/kg of feed) of 3.19 kg/7 d, a Gain ([5]; 121 mg/kg of feed) of 1.47 kg/7 d and a Final weight ([5]; 121 mg/kg of feed) of 3.72 kg. The “Lesion scores, middle intestine” value ([5]; 121 mg/kg of feed) was 1.57, the “Lesion scores, upper intestine” value ([5]; 121 mg/kg of feed) was 1.23 and the “Feed efficiency, feed/gain” value ([5]; 143 mg/kg of feed) was 2.19. It also gave a Feed consumption ([5]; 143 mg/kg of feed) of 3.46 kg/7 d, a Gain ([5]; 143 mg/kg of feed) of 1.58 kg/7 d and a Final weight ([5]; 143 mg/kg of feed) of 3.97 kg. For the same compound, the “Lesion scores, middle intestine” value ([5]; 143 mg/kg of feed) was 1.47, the “Lesion scores, upper intestine” value ([5]; 143 mg/kg of feed) was 0.50 and the “Feed efficiency, feed/gain” value ([5]; 165 mg/kg of feed) was 1.84. The Feed consumption ([5]; 165 mg/kg of feed) was 3.47 kg/7 d, the Gain ([5]; 165 mg/kg of feed) was 1.89 kg/7 d and the Final weight ([5]; 165 mg/kg of feed) was 4.21 kg. For the same compound, the “Lesion scores, middle intestine” value ([5]; 165 mg/kg of feed) was 0.70, the “Lesion scores, upper intestine” value ([5]; 165 mg/kg of feed) was 0.66 and the Protection against coccidiosis ([5]; all non-zero concentrations tested) was “protection against coccidiosis was afforded by all non-zero concentrations”. For the same compound, the “Lesion scores in the upper and middle intestines (in words)” value [5, 7] was “greatly reduced lesion scores in the upper and middle intestines”, the “Quantity of feed required per unit of gain (in words)” value [5, 7] was “halved the quantity of feed required per unit of gain” and the “Weight gain (in words)” value [5, 7] was “doubled weight gain”.
